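1) Cells in 96-well plates. 2) Compound, 48 h, 5 concentrations. 3) Linear interpolation between surrounding doses. 4) Unreached endpoint = highest concentration. At the TGI there is no net growth.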 A value given as a limit tells only on which side of the number the result lay.

Some test systems named below: OVCAR-4 ovarian; SF-539 CNS; MALME-3M melanoma; BT-549 breast; SR leukemia; RPMI-8226 leukemia; SF-295 CNS; CAKI-1 renal.
Experiment in all cases: inhibition of tumour cell growth, NCI panel, 48 h

For the compound `CN(C)CCn1c(=O)c2ccc(NCCN3CCNCC3)c3c(=O)c4ccccc4n(c1=O)c23`, the TGI in the assay with OVCAR-4 ovarian was 32.3 µM; in the assay with SF-539 CNS, 9 µM; in the assay on MALME-3M melanoma, 17 µM; with BT-549 breast it was 22.9 µM; in the assay with SR leukemia, 0.322 µM; with RPMI-8226 leukemia it was 2.93 µM. The TGI in the assay on SF-295 CNS turned out to be 18 µM; in the assay with CAKI-1 renal it was 10.2 µM.

Turning to `CC(=O)Nc1ccc2c3c(cc(O)c2c1)N(C(=O)CCCCCCC(=O)N1CC(CCl)c2c1cc(O)c1cc(NC(C)=O)ccc21)CC3CCl` (stereo not drawn), the TGI with OVCAR-4 ovarian is over 100 µM; in the assay with SF-539 CNS, 0.0413 µM; with MALME-3M melanoma, 0.0233 µM; in the assay with BT-549 breast, 0.0914 µM; with SF-295 CNS it was 3.19 µM; in the assay on CAKI-1 renal, 0.894 µM.

Consider `COc1ccc(N2C(=O)C3c4[nH]c5ccc(Br)cc5c4C4CCC(C(C)(C)C)CC4C3C2=O)cc1` (stereo not drawn), for which the TGI with OVCAR-4 ovarian, in the assay on SF-539 CNS, in the assay on MALME-3M melanoma, in the assay on BT-549 breast, with SR leukemia and in the assay on RPMI-8226 leukemia was over 100 µM each time. The TGI in the assay with SF-295 CNS and with CAKI-1 renal was over 100 µM each time.

Turning to `CCOC(=O)C(Cc1ccc(OC(=O)c2ccc(OC)cc2)cc1)NC(=O)C(F)(F)F` (stereo not drawn), the TGI in the assay on OVCAR-4 ovarian, in the assay with SF-539 CNS, in the assay with MALME-3M melanoma, in the assay with BT-549 breast, with RPMI-8226 leukemia and in the assay on SF-295 CNS was over 100 µM throughout. This compound also yielded a TGI in the assay on CAKI-1 renal of over 100 µM.

On to `CCOC(=O)C1c2[nH]c3ccccc3c2CCN1C(=O)c1ccc(OC)o1` (stereo not drawn), for which the TGI in the assay with OVCAR-4 ovarian was over 10 µM; in the assay on SF-539 CNS it was over 10 µM; in the assay on MALME-3M melanoma it was 2.78 µM; in the assay on SR leukemia, over 10 µM; in the assay on RPMI-8226 leukemia, over 10 µM; in the assay on SF-295 CNS, over 10 µM. In the assay with CAKI-1 renal, this compound displayed a TGI of over 10 µM.

With `CCOc1ccc(N/C(=C(/C(Cl)=C(/Cl)N2CCCCC2)[N+](=O)[O-])n2nnc3ccccc32)cc1`, the TGI is 36.9 µM in the assay on SF-539 CNS; 39.6 µM with MALME-3M melanoma; 34.6 µM in the assay on BT-549 breast; over 100 µM with RPMI-8226 leukemia; 49 µM in the assay on SF-295 CNS; 28.4 µM in the assay with CAKI-1 renal.

`OC(c1ccc(C(F)(F)F)cc1)C(F)(F)c1nc2ccccc2o1` (stereo not drawn): the TGI in the assay on OVCAR-4 ovarian, with SF-539 CNS, in the assay on BT-549 breast, with SR leukemia, with RPMI-8226 leukemia and in the assay with SF-295 CNS was over 100 µM each time. In the assay with CAKI-1 renal, this compound yielded a TGI of over 100 µM.

With `O=C1C(=O)N(c2cccc(C(F)(F)F)c2)C(=S)N1c1ccccc1`, the TGI in the assay with OVCAR-4 ovarian was over 100 µM; in the assay on SF-539 CNS it was 80.6 µM; with MALME-3M melanoma, over 100 µM; with SR leukemia it was over 100 µM; in the assay on RPMI-8226 leukemia, over 100 µM; in the assay with SF-295 CNS, over 100 µM. In the assay on CAKI-1 renal, this compound registered a TGI of 79.4 µM.

Take `COc1ccc(/C=C2\CCS(=O)(=O)c3ccccc3C2=O)cc1`: the TGI is 58.8 µM in the assay on OVCAR-4 ovarian; 67.4 µM in the assay on SF-539 CNS; 79.8 µM in the assay on BT-549 breast; 40.5 µM with SR leukemia; 61 µM in the assay on RPMI-8226 leukemia; 98.9 µM in the assay on SF-295 CNS. In the assay with CAKI-1 renal, this compound returned a TGI of 67.5 µM.

On to `CCOC(=O)C1=CCOc2cc(N(C)C)ccc21`, for which the TGI with SF-539 CNS, in the assay on MALME-3M melanoma, in the assay on BT-549 breast, in the assay with SR leukemia, in the assay on RPMI-8226 leukemia and in the assay with SF-295 CNS was over 100 µM each time. Further, the TGI in the assay with CAKI-1 renal is over 100 µM.

Regarding `CCCCCCCCCCCCCCCCCCNC(=S)/N=C\C1=C(O)c2ccccc2C1=O`, the TGI was found to be 36.7 µM in the assay on SF-539 CNS; 28.1 µM with MALME-3M melanoma; 33.9 µM in the assay on BT-549 breast; 33.1 µM with RPMI-8226 leukemia; 31.2 µM in the assay on SF-295 CNS; 31.2 µM with CAKI-1 renal.

For `O=[N+]([O-])C(=C(N1CCOCC1)N1CCOCC1)/C(Cl)=C(\Cl)Br`, the TGI in the assay on OVCAR-4 ovarian stood at 39.5 µM; with SF-539 CNS, 57.9 µM; in the assay on MALME-3M melanoma it was 30.5 µM; in the assay on BT-549 breast, 28.8 µM; in the assay with SR leukemia, 37.1 µM; with RPMI-8226 leukemia, 33.5 µM. This compound also showed a TGI in the assay on SF-295 CNS of over 100 µM.

Regarding `Cc1cc(Cc2cc(C)c(NC(=O)C(=O)C3CCC4=C(SC5C=CC=CC5N4)C3=O)c(C(C)C)c2)cc(C(C)C)c1NC(=O)C(=O)C1CCC2=C(SC3C=CC=CC3N2)C1=O` (stereo not drawn), the TGI in the assay with OVCAR-4 ovarian, with SF-539 CNS, in the assay on BT-549 breast, in the assay on SR leukemia, with RPMI-8226 leukemia and with SF-295 CNS was over 100 µM each time. The same compound came in with a TGI with CAKI-1 renal of over 100 µM.

Turning to `Cn1c(=O)c2c(nc3n2CCCC(=O)N3CC(O)CCl)n(C)c1=O` (stereo not drawn), the TGI in the assay with OVCAR-4 ovarian, with BT-549 breast, with SR leukemia, in the assay on RPMI-8226 leukemia, in the assay on SF-295 CNS and in the assay on CAKI-1 renal was over 100 µM each time.

For the compound `O=c1c2cc3c(=O)n4c(cc(-c5ccccc5)c5cc(Cl)ccc54)nc3cc2nc2cc(-c3ccccc3)c3cc(Cl)ccc3n12`, the TGI in the assay with SF-539 CNS, with BT-549 breast, with SR leukemia, with RPMI-8226 leukemia, with SF-295 CNS and with CAKI-1 renal was over 100 µM throughout.

On to `S=C1CCSc2c(ccc3ccccc23)N1`, for which the TGI in the assay on OVCAR-4 ovarian, in the assay with MALME-3M melanoma, in the assay on BT-549 breast, in the assay on SR leukemia, with SF-295 CNS and in the assay with CAKI-1 renal was over 100 µM in each case.

With `CC(=O)O[C@H]1CC[C@@]2(C)C(=CC[C@@H]3[C@@H]2CC[C@]2(C)c4c(C)nn(-c5ccccc5)c4C[C@@H]32)C1`, the TGI in the assay with OVCAR-4 ovarian was over 100 µM; in the assay with BT-549 breast, 23.8 µM; in the assay with SR leukemia, 65 µM; in the assay with SF-295 CNS, 12.9 µM; in the assay on CAKI-1 renal it was 47.2 µM.
